Measurements reported in US20060154243A1 (priority 2003, published 2006).

Legend:
Assay type in all cases: binding, human
serum London = tested on: serum London
serum 6 (individual 6) = tested on: serum 6 (individual 6)
serum SARS-green = tested on: serum SARS-green
[1] = tested on: serum 1b (individual 1, late serum)
serum 2 (individual 2) = tested on: serum 2 (individual 2)
[2] = tested on: sera SARS-green, SARS-yellow, 1a, 1b, 2, 6, 37, 62 and London
[3] = tested on: control serum Blood-bank (commercial negative donor pooled serum)
[4] = tested on: serum 1a (individual 1, early serum)
[5] = tested on: control serum LUMC (pooled serum of ten healthy hospital workers)
serum 37 (individual 37) = tested on: serum 37 (individual 37)
serum 62 (individual 62) = tested on: serum 62 (individual 62)
serum SARS-yellow = tested on: serum SARS-yellow

With EQHCQKASTQREAEA the “Binding of serum London to linear peptides of Orf14 of SARS-CoV TOR2” value (from here on “Binding of serum London”) (serum London) was 0.5, the “Binding of serum 6 to linear peptides of Orf14 of SARS-CoV TOR2” value (serum 6 (individual 6)) was 0.4 and the “Binding of serum SARS-green to linear peptides of Orf14 of SARS-CoV TOR2” value (“Binding of serum SARS-green” below) (serum SARS-green) was 0.3. For the same sequence, the “Binding of serum 1b to linear peptides of Orf14 of SARS-CoV TOR2” value (shortened to “Binding of serum 1b”) [1] was 0.4, the “Binding of serum 2 to linear peptides of Orf14 of SARS-CoV TOR2” value (serum 2 (individual 2)) was 0.6 and the “Recognition of the peptide by sera of individuals infected by SARS-CoV, form recognized” value (“Recognition of the peptide” for short) [2] was “recognized in looped form”. For the same sequence, the “Control Serum Blood-Bank Looped peptides” value [3] was 0.9, the “Control serum Blood-bank linear peptides” value [3] was 0.5 and the “Binding of serum 1a to linear peptides of Orf14 of SARS-CoV TOR2” value (shortened to “Binding of serum 1a”) [4] was 0.4. For the same sequence, the “Control serum LUMC linear peptides” value [5] was 0.4, the “Control serum LUMC looped peptides” value [5] was 0.8 and the “Binding of serum 37 to linear peptides of Orf14 of SARS-CoV TOR2” value (serum 37 (individual 37)) was 0.5. For the same sequence, the “Binding of serum 62 to linear peptides of Orf14 of SARS-CoV TOR2” value (serum 62 (individual 62)) was 0.3 and the “Binding of serum SARS-yellow to linear peptides of Orf14 of SARS-CoV TOR2” value (“Binding of serum SARS-yellow” for short) (serum SARS-yellow) was 0.4.

In the case of KASTQREAEAAVKPL, the “Binding of serum London” value (serum London) is reported as 0.2, the “Binding of serum 6 to linear peptides of Orf14 of SARS-CoV TOR2” value (serum 6 (individual 6)) is reported as 0.3 and the “Binding of serum SARS-green” value (serum SARS-green) is reported as 0.1. The “Binding of serum 1b” value [1] was 0.3, the “Binding of serum 2 to linear peptides of Orf14 of SARS-CoV TOR2” value (serum 2 (individual 2)) was 0.3 and the “Recognition of the peptide” value [2] was “recognized in looped form”. For the same sequence, the “Control Serum Blood-Bank Looped peptides” value [3] was 0.6, the “Control serum Blood-bank linear peptides” value [3] was 0.3 and the “Binding of serum 1a” value [4] was 0.3. For the same sequence, the “Control serum LUMC linear peptides” value [5] was 0.3, the “Control serum LUMC looped peptides” value [5] was 0.6 and the “Binding of serum 37 to linear peptides of Orf14 of SARS-CoV TOR2” value (serum 37 (individual 37)) was 0.3. The “Binding of serum 62 to linear peptides of Orf14 of SARS-CoV TOR2” value (serum 62 (individual 62)) was 0.2 and the “Binding of serum SARS-yellow” value (serum SARS-yellow) was 0.1.

With CYNFLKEQHCQKAST the “Binding of serum London” value (serum London) was 0.7, the “Binding of serum 6 to linear peptides of Orf14 of SARS-CoV TOR2” value (serum 6 (individual 6)) was 0.5 and the “Binding of serum SARS-green” value (serum SARS-green) was 0.4. The “Binding of serum 1b” value [1] was 0.3, the “Binding of serum 2 to linear peptides of Orf14 of SARS-CoV TOR2” value (serum 2 (individual 2)) was 0.5 and the “Recognition of the peptide” value [2] was “recognized in looped form”. For the same sequence, the “Control Serum Blood-Bank Looped peptides” value [3] was 0.6, the “Control serum Blood-bank linear peptides” value [3] was 0.4 and the “Binding of serum 1a” value [4] was 0.5. The “Control serum LUMC linear peptides” value [5] was 0.3, the “Control serum LUMC looped peptides” value [5] was 0.5 and the “Binding of serum 37 to linear peptides of Orf14 of SARS-CoV TOR2” value (serum 37 (individual 37)) was 0.6. The “Binding of serum 62 to linear peptides of Orf14 of SARS-CoV TOR2” value (serum 62 (individual 62)) was 0.4 and the “Binding of serum SARS-yellow” value (serum SARS-yellow) was 0.1.

In the case of STQREAEAAVKPLLA, the “Binding of serum London” value (serum London) is reported as 0.4, the “Binding of serum 6 to linear peptides of Orf14 of SARS-CoV TOR2” value (serum 6 (individual 6)) is reported as 0.5 and the “Binding of serum SARS-green” value (serum SARS-green) is reported as 0.4. For the same sequence, the “Binding of serum 1b” value [1] was 0.3, the “Binding of serum 2 to linear peptides of Orf14 of SARS-CoV TOR2” value (serum 2 (individual 2)) was 0.5 and the “Recognition of the peptide” value [2] was “recognized in looped form”. For the same sequence, the “Control Serum Blood-Bank Looped peptides” value [3] was 1.2, the “Control serum Blood-bank linear peptides” value [3] was 0.6 and the “Binding of serum 1a” value [4] was 0.5. For the same sequence, the “Control serum LUMC linear peptides” value [5] was 0.6, the “Control serum LUMC looped peptides” value [5] was 1.2 and the “Binding of serum 37 to linear peptides of Orf14 of SARS-CoV TOR2” value (serum 37 (individual 37)) was 0.6. For the same sequence, the “Binding of serum 62 to linear peptides of Orf14 of SARS-CoV TOR2” value (serum 62 (individual 62)) was 0.4 and the “Binding of serum SARS-yellow” value (serum SARS-yellow) was 0.5.

LKEQHCQKASTQREA was tested, and the “Binding of serum London” value (serum London) was 0.3, the “Binding of serum 6 to linear peptides of Orf14 of SARS-CoV TOR2” value (serum 6 (individual 6)) was 0.2 and the “Binding of serum SARS-green” value (serum SARS-green) was 0.1. The “Binding of serum 1b” value [1] was 0.2, the “Binding of serum 2 to linear peptides of Orf14 of SARS-CoV TOR2” value (serum 2 (individual 2)) was 0.4 and the “Recognition of the peptide” value [2] was “recognized in looped form”. The “Control Serum Blood-Bank Looped peptides” value [3] was 0.9, the “Control serum Blood-bank linear peptides” value [3] was 0.3 and the “Binding of serum 1a” value [4] was 0.3. For the same sequence, the “Control serum LUMC linear peptides” value [5] was 0.3, the “Control serum LUMC looped peptides” value [5] was 0.9 and the “Binding of serum 37 to linear peptides of Orf14 of SARS-CoV TOR2” value (serum 37 (individual 37)) was 0.4. For the same sequence, the “Binding of serum 62 to linear peptides of Orf14 of SARS-CoV TOR2” value (serum 62 (individual 62)) was 0.2 and the “Binding of serum SARS-yellow” value (serum SARS-yellow) was 0.3.

With ASTQREAEAAVKPLL the “Binding of serum London” value (serum London) was 0.4, the “Binding of serum 6 to linear peptides of Orf14 of SARS-CoV TOR2” value (serum 6 (individual 6)) was 0.5 and the “Binding of serum SARS-green” value (serum SARS-green) was 0.4. For the same sequence, the “Binding of serum 1b” value [1] was 0.3, the “Binding of serum 2 to linear peptides of Orf14 of SARS-CoV TOR2” value (serum 2 (individual 2)) was 0.4 and the “Recognition of the peptide” value [2] was “recognized in looped form”. The “Control Serum Blood-Bank Looped peptides” value [3] was 0.9, the “Control serum Blood-bank linear peptides” value [3] was 0.5 and the “Binding of serum 1a” value [4] was 0.4. The “Control serum LUMC linear peptides” value [5] was 0.4, the “Control serum LUMC looped peptides” value [5] was 0.8 and the “Binding of serum 37 to linear peptides of Orf14 of SARS-CoV TOR2” value (serum 37 (individual 37)) was 0.5. For the same sequence, the “Binding of serum 62 to linear peptides of Orf14 of SARS-CoV TOR2” value (serum 62 (individual 62)) was 0.4 and the “Binding of serum SARS-yellow” value (serum SARS-yellow) was 0.4.

With PPCYNFLKEQHCQKA the “Binding of serum London” value (serum London) was 0.1, the “Binding of serum 6 to linear peptides of Orf14 of SARS-CoV TOR2” value (serum 6 (individual 6)) was 0.2 and the “Binding of serum SARS-green” value (serum SARS-green) was 0.1. For the same sequence, the “Binding of serum 1b” value [1] was 0.2, the “Binding of serum 2 to linear peptides of Orf14 of SARS-CoV TOR2” value (serum 2 (individual 2)) was 0.1 and the “Recognition of the peptide” value [2] was “recognized in looped form”. For the same sequence, the “Control Serum Blood-Bank Looped peptides” value [3] was 0.8, the “Control serum Blood-bank linear peptides” value [3] was 0.2 and the “Binding of serum 1a” value [4] was 0.3. The “Control serum LUMC linear peptides” value [5] was 0.1, the “Control serum LUMC looped peptides” value [5] was 0.6 and the “Binding of serum 37 to linear peptides of Orf14 of SARS-CoV TOR2” value (serum 37 (individual 37)) was 0.3. For the same sequence, the “Binding of serum 62 to linear peptides of Orf14 of SARS-CoV TOR2” value (serum 62 (individual 62)) was 0.2 and the “Binding of serum SARS-yellow” value (serum SARS-yellow) was 0.0.

In the case of PCYNFLKEQHCQKAS, the “Binding of serum London” value (serum London) is reported as 0.2, the “Binding of serum 6 to linear peptides of Orf14 of SARS-CoV TOR2” value (serum 6 (individual 6)) is reported as 0.3 and the “Binding of serum SARS-green” value (serum SARS-green) is reported as 0.1. For the same sequence, the “Binding of serum 1b” value [1] was 0.2, the “Binding of serum 2 to linear peptides of Orf14 of SARS-CoV TOR2” value (serum 2 (individual 2)) was 0.1 and the “Recognition of the peptide” value [2] was “recognized in looped form”. The “Control Serum Blood-Bank Looped peptides” value [3] was 0.7, the “Control serum Blood-bank linear peptides” value [3] was 0.0 and the “Binding of serum 1a” value [4] was 0.3. For the same sequence, the “Control serum LUMC linear peptides” value [5] was 0.1, the “Control serum LUMC looped peptides” value [5] was 0.5 and the “Binding of serum 37 to linear peptides of Orf14 of SARS-CoV TOR2” value (serum 37 (individual 37)) was 0.4. The “Binding of serum 62 to linear peptides of Orf14 of SARS-CoV TOR2” value (serum 62 (individual 62)) was 0.1 and the “Binding of serum SARS-yellow” value (serum SARS-yellow) was 0.1.

In the case of QKASTQREAEAAVKP, the “Binding of serum London” value (serum London) is reported as 0.3, the “Binding of serum 6 to linear peptides of Orf14 of SARS-CoV TOR2” value (serum 6 (individual 6)) is reported as 0.3 and the “Binding of serum SARS-green” value (serum SARS-green) is reported as 0.1. For the same sequence, the “Binding of serum 1b” value [1] was 0.3, the “Binding of serum 2 to linear peptides of Orf14 of SARS-CoV TOR2” value (serum 2 (individual 2)) was 0.4 and the “Recognition of the peptide” value [2] was “recognized in looped form”. The “Control Serum Blood-Bank Looped peptides” value [3] was 0.7, the “Control serum Blood-bank linear peptides” value [3] was 0.3 and the “Binding of serum 1a” value [4] was 0.4. For the same sequence, the “Control serum LUMC linear peptides” value [5] was 0.3, the “Control serum LUMC looped peptides” value [5] was 0.8 and the “Binding of serum 37 to linear peptides of Orf14 of SARS-CoV TOR2” value (serum 37 (individual 37)) was 0.4. The “Binding of serum 62 to linear peptides of Orf14 of SARS-CoV TOR2” value (serum 62 (individual 62)) was 0.3 and the “Binding of serum SARS-yellow” value (serum SARS-yellow) was 0.1.

For QHCQKASTQREAEAA, the “Binding of serum London” value (serum London) was 0.5, the “Binding of serum 6 to linear peptides of Orf14 of SARS-CoV TOR2” value (serum 6 (individual 6)) was 0.3 and the “Binding of serum SARS-green” value (serum SARS-green) was 0.3. The “Binding of serum 1b” value [1] was 0.4, the “Binding of serum 2 to linear peptides of Orf14 of SARS-CoV TOR2” value (serum 2 (individual 2)) was 0.6 and the “Recognition of the peptide” value [2] was “recognized in looped form”. For the same sequence, the “Control Serum Blood-Bank Looped peptides” value [3] was 1.1, the “Control serum Blood-bank linear peptides” value [3] was 0.4 and the “Binding of serum 1a” value [4] was 0.4. For the same sequence, the “Control serum LUMC linear peptides” value [5] was 0.4, the “Control serum LUMC looped peptides” value [5] was 1.2 and the “Binding of serum 37 to linear peptides of Orf14 of SARS-CoV TOR2” value (serum 37 (individual 37)) was 0.5. For the same sequence, the “Binding of serum 62 to linear peptides of Orf14 of SARS-CoV TOR2” value (serum 62 (individual 62)) was 0.4 and the “Binding of serum SARS-yellow” value (serum SARS-yellow) was 0.3.
